pEC50, pIC50: −log10 of the molar value. ≈ marks a conversion by molar mass, not a printed value.
Legend:
[1] = Anticancer activity against mouse L1210/0 cells assessed as cell growth inhibition measured after 3 days by CCK-8 assay; format: functional, cell-based; conditions: L1210/0, 72 h
MOLT-4 = assay: Anticancer activity against human Molt4/C8 cells assessed as cell growth inhibition measured after 3 days by CCK-8 assay; format: functional, cell-based; conditions: MOLT-4, 72 h
CCRF-CEM = assay: Anticancer activity against human CEM/0 cells assessed as cell growth inhibition measured after 3 days by CCK-8 assay; format: functional, cell-based; conditions: 72 h
Pseudomonas aeruginosa [2] = assay: Antibacterial activity against Pseudomonas aeruginosa assessed as cell growth inhibition measured after 24 hrs by serial broth-dilution method; format: functional
Aspergillus flavus [3] = assay: […] activity against Aspergillus flavus assessed as cell growth inhibition measured after 24 hrs by serial broth-dilution method; format: functional
Pseudomonas aeruginosa [4] = assay: Antibacterial activity against Pseudomonas aeruginosa assessed as zone of inhibition measured after 24 hrs by agar well diffusion method; format: functional
Aspergillus flavus [5] = assay: […] activity against Aspergillus flavus assessed as zone of inhibition measured after 24 hrs by agar well diffusion method; format: functional
[6] = Antioxidant activity assessed as DPPH radical scavenging activity incubated for 30 mins in dark condition by spectrophotometrical analysis; format: functional
MCF7 = assay: Anticancer activity against human MCF7 cells assessed as cell growth inhibition measured after 48 hrs by sulforhodamine B staining based analysis; format: functional
NCI-H460 = assay: Anticancer activity against human NCI-H460 cells assessed as cell growth inhibition measured after 48 hrs by sulforhodamine B staining based analysis; format: functional
SF-268 = assay: Anticancer activity against human SF-268 cells assessed as cell growth inhibition measured after 48 hrs by sulforhodamine B staining based analysis; format: functional
[7] = Cytotoxicity against human WI-38 cells assessed as cell growth inhibition measured after 48 hrs by sulforhodamine B staining based analysis; format: toxicity
Hepatitis C virus = assay: Antiviral activity against HCV GT-1b infected in human Huh-5-2 cells carrying HCV subgenomic replicons assessed as inhibition of viral replication by quantitative RT-PCR assay; format: functional, organism-based, Hepacivirus hominis; conditions: subtype 1b
Salmonella typhi = assay: Antibacterial activity against Salmonella typhi ATCC 11778 assessed as bacterial growth inhibition at 50 ug/ml incubated for 24 hrs relative to control; format: functional, Salmonella enterica subsp. enterica serovar Typhi; set-up: scale not given: the % may be the effect or the level left; conditions: dose 50 µg/ml
Shigella dysenteriae = assay: Antibacterial activity against Shigella dysenteriae ATCC 49345 assessed as bacterial growth inhibition at 50 ug/ml incubated for 24 hrs relative to control; format: functional; set-up: scale not given: the % may be the effect or the level left; conditions: dose 50 µg/ml
Staphylococcus aureus [8] = assay: Antibacterial activity against Staphylococcus aureus assessed as zone of inhibition at 1000 ug/ml measured after 24 hrs by cup plate method; format: functional; conditions: read-out: DIZ
Bacillus subtilis = assay: Antibacterial activity against Bacillus subtilis assessed as zone of inhibition at 1000 ug/ml measured after 24 hrs by cup plate method; format: functional; conditions: read-out: DIZ
Pseudomonas aeruginosa [9] = assay: Antibacterial activity against Pseudomonas aeruginosa assessed as zone of inhibition at 1000 ug/ml measured after 24 hrs by cup plate method; format: functional; conditions: read-out: DIZ
Escherichia coli = assay: Antibacterial activity against Escherichia coli assessed as zone of inhibition at 1000 ug/ml measured after 24 hrs by cup plate method; format: functional; conditions: read-out: DIZ
Aspergillus niger = assay: Antifungal activity against Aspergillus niger assessed as zone of inhibition at 1000 ug/ml measured after 24 hrs by cup plate method; format: functional; conditions: read-out: DIZ
Aspergillus flavus [10] = assay: Antifungal activity against Aspergillus flavus assessed as zone of inhibition at 1000 ug/ml measured after 24 hrs by cup plate method; format: functional; conditions: read-out: DIZ
Aspergillus terreus = assay: Antifungal activity against Aspergillus terreus assessed as zone of inhibition at 1000 ug/ml measured after 24 hrs by cup plate method; format: functional; conditions: read-out: DIZ
Rattus norvegicus = assay: Antiinflammatory activity in formalin induced fasted albino rat paw oedema model assessed as inhibition of paw oedema at 100 mg/kg, po measured after 4 hrs by plethysmograph analysis relative to control; format: functional; set-up: scale not given: the % may be the effect or the level left
Carbonic anhydrase 1 = Carbonic anhydrase 1 (Homo sapiens, UniProt P00915); assay: Inhibition of human carbonic anhydrase-1 by stopped flow CO2 hydrase assay
Carbonic anhydrase 1, sequence (P00915 whole entry): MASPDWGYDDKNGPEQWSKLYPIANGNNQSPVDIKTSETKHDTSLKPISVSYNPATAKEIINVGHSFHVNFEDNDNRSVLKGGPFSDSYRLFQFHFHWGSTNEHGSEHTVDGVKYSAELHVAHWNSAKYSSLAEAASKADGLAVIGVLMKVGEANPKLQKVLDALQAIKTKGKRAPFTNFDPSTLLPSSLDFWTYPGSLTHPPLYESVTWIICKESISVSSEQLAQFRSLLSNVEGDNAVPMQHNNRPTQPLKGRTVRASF

Carbonic anhydrase 2 = Carbonic anhydrase 2 (Homo sapiens, UniProt P00918); assay: Inhibition of human carbonic anhydrase-2 by stopped flow CO2 hydrase assay
HeLa = assay: Anticancer activity against human HeLa cells assessed as cell growth inhibition by SRB method; format: functional
Staphylococcus aureus [11] = assay: Antibacterial activity against beta lactamase positive Staphylococcus aureus ATCC 25923 assessed as zone of inhibition at 0.5 mg/ml incubated for 18 hrs by Kirby-Bauer disk diffusion method; format: functional; conditions: read-out: DIZ
Sprivivirus cyprinus = assay: Antiviral activity against Carp sprivivirus infected Fathead minnow EPC cells assessed as assessed as suppression of virus-induced cytopathic effect incubated for 48 hrs by CCK-8 assay; format: functional, organism-based

`Cc1ccc2oc(=O)c(-c3nc4cc(Cl)ccc4[nH]3)cc2c1` gave an IC50 [1] of 5.1 µg/mL (≈ 16.4 µM), an IC50 (MOLT-4) of 3.6 µg/mL (≈ 11.6 µM) and an IC50 (CCRF-CEM) of 1.9 µg/mL (≈ 6.11 µM).
For `O=c1oc2ccccc2c(O)c1C(Sc1nc2ccccc2[nH]1)c1ccccc1` (stereo not drawn), the MIC (Pseudomonas aeruginosa [2]) was 200 µg/mL (≈ 499 µM), the MIC (Aspergillus flavus [3]) was 200 µg/mL (≈ 499 µM) and the “diameter of the inhibition zone (DIZ)” value (Pseudomonas aeruginosa [4]) was 23 mm. The “diameter of the inhibition zone (DIZ)” value (Aspergillus flavus [5]) was 18 mm.
In the case of `O=C(Cc1cc(=O)oc2c([N+](=O)[O-])cccc12)Nc1nc2ccccc2[nH]1`, the pEC50 [6] was 7.10.
For `O=c1oc2ccccc2c2cc(O)n3c4ccccc4nc3c12`, the GI50 (MCF7) was 44 µM, the GI50 (NCI-H460) was 29 µM and the GI50 (SF-268) was 20.6 µM. It also gave a GI50 at 48 h [7] of 28.2 µM.
`CC(=O)OC[C@H]1O[C@@H](n2c(SCc3cc4ccccc4oc3=O)nc3cc(Cl)c(Cl)cc32)[C@H](OC(C)=O)[C@@H](OC(C)=O)[C@@H]1OC(C)=O` gave a pEC50 (Hepatitis C virus) of 5.51.
In the case of `O=c1oc2ccc(Cl)cc2cc1CSc1nc2ccc([N+](=O)[O-])cc2[nH]1`, the Activity (Salmonella typhi) was 100% and the Activity (Shigella dysenteriae) was 100%.
In the case of `O=c1oc2ccc(Br)cc2cc1CSc1nc2ccccc2[nH]1`, the pEC50 (Hepatitis C virus) was 5.40, the Activity (Salmonella typhi) was 100% and the Activity (Shigella dysenteriae) was 100%.
Work on `O=C1CSC(c2cc3ccc(O)cc3oc2=O)N1Nc1nc2ccccc2[nH]1` (stereo not drawn) yielded a zone of inhibition at 1000 µg/mL (Staphylococcus aureus [8]) of 13 mm, a zone of inhibition at 1000 µg/mL (Bacillus subtilis) of 13 mm and a zone of inhibition at 1000 µg/mL (Pseudomonas aeruginosa [9]) of 13 mm. The zone of inhibition at 1000 µg/mL (Escherichia coli) was 13 mm, the zone of inhibition at 1000 µg/mL (Aspergillus niger) was 13 mm and the zone of inhibition at 1000 µg/mL (Aspergillus flavus [10]) was 13 mm. The zone of inhibition at 1000 µg/mL (Aspergillus terreus) was 13 mm and the Activity (Rattus norvegicus) was 48%.
With `O=c1cc(C[n+]2cn(Cc3ccc4ccccc4c3)c3ccccc32)c2ccc(O)cc2o1` the pIC50 (Carbonic anhydrase 1) was 5.27 and the pIC50 (Carbonic anhydrase 2) was 5.22.
In the case of `O=c1oc2cc(O)ccc2cc1/C=N/Nc1nc2ccccc2[nH]1`, the zone of inhibition at 1000 µg/mL (Staphylococcus aureus [8]) was 13 mm, the zone of inhibition at 1000 µg/mL (Bacillus subtilis) was 13 mm and the zone of inhibition at 1000 µg/mL (Pseudomonas aeruginosa [9]) was 13 mm. For the same compound, the zone of inhibition at 1000 µg/mL (Escherichia coli) was 13 mm, the zone of inhibition at 1000 µg/mL (Aspergillus niger) was 13 mm and the zone of inhibition at 1000 µg/mL (Aspergillus flavus [10]) was 13 mm. It also gave a zone of inhibition at 1000 µg/mL (Aspergillus terreus) of 13 mm and an Activity (Rattus norvegicus) of 39%.
Compound `O=c1oc2ccc(Br)cc2cc1CSc1nc2cc(F)ccc2[nH]1` has a pEC50 (Hepatitis C virus) of 5.47.
`COc1cccc2cc(CSc3nc4cc(Cl)c(Cl)cc4[nH]3)c(=O)oc12` gave a pEC50 (Hepatitis C virus) of 5.44.
In the case of `Cc1c(C2SCC(=O)N2Nc2nc3ccccc3[nH]2)c(=O)oc2cc(O)ccc12` (stereo not drawn), the zone of inhibition at 1000 µg/mL (Staphylococcus aureus [8]) was 13 mm, the zone of inhibition at 1000 µg/mL (Bacillus subtilis) was 13 mm and the zone of inhibition at 1000 µg/mL (Pseudomonas aeruginosa [9]) was 13 mm. It also gave a zone of inhibition at 1000 µg/mL (Escherichia coli) of 13 mm, a zone of inhibition at 1000 µg/mL (Aspergillus niger) of 13 mm and a zone of inhibition at 1000 µg/mL (Aspergillus flavus [10]) of 13 mm. The zone of inhibition at 1000 µg/mL (Aspergillus terreus) was 13 mm and the Activity (Rattus norvegicus) was 20%.
With `O=c1cc(Cc2nc3ccccc3[nH]2)c2cccc([N+](=O)[O-])c2o1` the pEC50 [6] was 6.77.
`COc1ccc2oc(=O)cc(-c3nc4ccccc4n3S(=O)(=O)c3ccc(C)cc3)c2c1` gave a GI50 (HeLa) of 35 µg/mL (≈ 78.4 µM).
In the case of `O=c1oc2ccccc2c(O)c1S(=O)(=O)Nc1nc2ccccc2[nH]1`, the zone of inhibition at 500 µg/mL (Staphylococcus aureus [11]) was 13 mm.
`CC(=O)n1c(-c2cc3ccccc3oc2=O)nc2ccccc21` showed a GI50 (MCF7) of 22.7 µM, a GI50 (NCI-H460) of 36.5 µM and a GI50 (SF-268) of 31.5 µM. It also gave a GI50 at 48 h [7] of over 100 µM.
In the case of `O=c1ccc2cc(OCCCCn3cnc4ccccc43)ccc2o1`, the IC50 (Sprivivirus cyprinus) was 0.56 µg/mL (≈ 1.67 µM).
For `O=C1O[C@H]([C@@H](O)CO)C(O)=C1O` [ASCORBIC ACID], the pEC50 [6] was 7.52.
`Cc1cc(C(C)(C)C)c(O)c(C(C)(C)C)c1` [BUTYLATED HYDROXYTOLUENE] showed a pEC50 [6] of 4.63.
`CO[C@@H]1[C@@H](OC(N)=O)[C@@H](O)[C@H](Oc2ccc3c(O)c(NC(=O)c4ccc(O)c(CC=C(C)C)c4)c(=O)oc3c2C)OC1(C)C` [NOVOBIOCIN] showed a zone of inhibition at 500 µg/mL (Staphylococcus aureus [11]) of 25 mm.
Work on `CN[C@@H]1[C@H](O[C@H]2[C@H](O[C@H]3[C@H](O)[C@@H](O)[C@H](N=C(N)N)[C@@H](O)[C@@H]3N=C(N)N)O[C@@H](C)[C@]2(O)C=O)O[C@@H](CO)[C@H](O)[C@H]1O` [STREPTOMYCIN] yielded an MIC (Pseudomonas aeruginosa [2]) of 2200 µg/mL (≈ 3780 µM).
